pIC50: −log10 of the molar value. Each block holds one molecule with its values, some of them ahead of it.
Tests used:
[1] = molecular target: T1, C-C chemokine receptor type 10 (Homo sapiens, UniProt P46092); assay: Antagonist activity at human CCR10 expressed in CHOK1 cells coexpressing aequorin/Galphaq assessed as inhibition of human CCL27-dependent calcium flux in presence of coelenterazine H by chemiluminescence assay; format: functional, cell-based, CHO-K1; details: read-out: pIC50 (converted)
T1 sequence (P46092 whole entry): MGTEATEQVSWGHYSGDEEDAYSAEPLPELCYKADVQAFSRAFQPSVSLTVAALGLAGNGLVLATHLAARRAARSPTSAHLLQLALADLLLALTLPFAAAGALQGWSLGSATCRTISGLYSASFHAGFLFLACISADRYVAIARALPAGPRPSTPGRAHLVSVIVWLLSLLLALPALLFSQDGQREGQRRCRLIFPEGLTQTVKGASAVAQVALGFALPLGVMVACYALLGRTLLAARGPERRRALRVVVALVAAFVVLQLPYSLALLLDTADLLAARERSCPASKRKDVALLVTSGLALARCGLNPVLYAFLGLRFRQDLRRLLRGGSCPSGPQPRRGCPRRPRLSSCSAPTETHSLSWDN

[2] = molecular target: T2, C-C chemokine receptor type 10 (Mus musculus, UniProt Q9JL21); assay: Antagonist activity at mouse CCR10 expressed in CHOK1 cells coexpressing aequorin/Galphaq assessed as inhibition of CCL27-dependent calcium flux in presence of coelenterazine H by chemiluminescence assay; format: functional, cell-based, CHO-K1
T2 sequence (Q9JL21 whole entry): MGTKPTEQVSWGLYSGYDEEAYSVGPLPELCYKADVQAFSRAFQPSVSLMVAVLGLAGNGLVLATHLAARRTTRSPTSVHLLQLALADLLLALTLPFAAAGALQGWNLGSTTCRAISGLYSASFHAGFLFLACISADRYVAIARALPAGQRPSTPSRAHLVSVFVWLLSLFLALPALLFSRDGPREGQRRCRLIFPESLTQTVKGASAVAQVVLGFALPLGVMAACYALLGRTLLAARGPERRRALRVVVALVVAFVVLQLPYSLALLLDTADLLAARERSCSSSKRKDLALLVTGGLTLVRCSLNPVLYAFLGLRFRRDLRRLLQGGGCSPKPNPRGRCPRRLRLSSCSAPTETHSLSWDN

[3] = species on record: Rattus norvegicus; assay: Binding affinity to rat 5-HT1 receptor at 10 uM relative to control
[4] = species on record: Homo sapiens; assay: Binding affinity to human IL-8 receptor at 10 uM relative to control
[5] = molecular target: D(1A) dopamine receptor (Homo sapiens) (UniProt P21728); assay: Binding affinity to human dopamine D1 receptor at 10 uM relative to control
D(1A) dopamine receptor (Homo sapiens), sequence (P21728 whole entry): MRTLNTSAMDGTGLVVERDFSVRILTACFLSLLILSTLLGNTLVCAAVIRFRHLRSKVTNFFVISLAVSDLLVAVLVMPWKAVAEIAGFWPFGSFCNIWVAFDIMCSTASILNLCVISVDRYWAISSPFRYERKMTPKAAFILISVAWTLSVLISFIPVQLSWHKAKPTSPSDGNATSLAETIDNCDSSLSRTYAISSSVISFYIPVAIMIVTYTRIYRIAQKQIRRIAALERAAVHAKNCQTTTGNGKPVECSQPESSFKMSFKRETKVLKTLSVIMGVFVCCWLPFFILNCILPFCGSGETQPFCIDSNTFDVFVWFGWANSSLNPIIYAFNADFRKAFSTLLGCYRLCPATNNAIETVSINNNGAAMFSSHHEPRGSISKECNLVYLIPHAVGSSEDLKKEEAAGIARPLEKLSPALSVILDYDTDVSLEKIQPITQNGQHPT

[6] = molecular target: B2 bradykinin receptor (Homo sapiens) (UniProt P30411); assay: Binding affinity to human B2 bradykinin receptor at 10 uM relative to control
B2 bradykinin receptor (Homo sapiens), sequence (P30411 whole entry): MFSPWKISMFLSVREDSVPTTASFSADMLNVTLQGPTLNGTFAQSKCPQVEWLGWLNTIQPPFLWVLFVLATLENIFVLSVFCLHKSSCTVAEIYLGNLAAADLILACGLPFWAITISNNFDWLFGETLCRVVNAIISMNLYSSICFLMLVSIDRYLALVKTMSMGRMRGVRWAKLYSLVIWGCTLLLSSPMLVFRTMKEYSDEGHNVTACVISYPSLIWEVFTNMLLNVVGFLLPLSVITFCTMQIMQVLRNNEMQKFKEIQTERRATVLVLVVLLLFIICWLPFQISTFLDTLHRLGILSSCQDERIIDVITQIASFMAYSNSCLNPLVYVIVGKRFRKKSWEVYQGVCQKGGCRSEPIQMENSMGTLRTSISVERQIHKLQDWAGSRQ

[7] = molecular target: D(2) dopamine receptor (Homo sapiens) (UniProt P14416); assay: Binding affinity to human dopamine D2L receptor at 10 uM relative to control
D(2) dopamine receptor (Homo sapiens), sequence (P14416 whole entry): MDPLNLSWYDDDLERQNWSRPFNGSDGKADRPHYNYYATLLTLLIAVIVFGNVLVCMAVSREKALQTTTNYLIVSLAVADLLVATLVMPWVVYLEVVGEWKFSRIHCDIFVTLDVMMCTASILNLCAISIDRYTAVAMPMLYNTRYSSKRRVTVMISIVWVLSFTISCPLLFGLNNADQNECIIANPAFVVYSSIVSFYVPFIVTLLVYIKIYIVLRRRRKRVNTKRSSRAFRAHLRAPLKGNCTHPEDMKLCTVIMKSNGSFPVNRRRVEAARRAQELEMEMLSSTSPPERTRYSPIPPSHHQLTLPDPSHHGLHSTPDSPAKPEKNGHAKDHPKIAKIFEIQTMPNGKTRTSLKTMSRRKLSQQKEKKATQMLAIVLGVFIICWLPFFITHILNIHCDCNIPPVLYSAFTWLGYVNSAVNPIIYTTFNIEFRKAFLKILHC

[8] = molecular target: 5-hydroxytryptamine receptor 3A (Homo sapiens) (UniProt P46098); assay: Binding affinity to human 5-HT3 receptor at 10 uM relative to control
5-hydroxytryptamine receptor 3A (Homo sapiens), sequence (P46098 whole entry): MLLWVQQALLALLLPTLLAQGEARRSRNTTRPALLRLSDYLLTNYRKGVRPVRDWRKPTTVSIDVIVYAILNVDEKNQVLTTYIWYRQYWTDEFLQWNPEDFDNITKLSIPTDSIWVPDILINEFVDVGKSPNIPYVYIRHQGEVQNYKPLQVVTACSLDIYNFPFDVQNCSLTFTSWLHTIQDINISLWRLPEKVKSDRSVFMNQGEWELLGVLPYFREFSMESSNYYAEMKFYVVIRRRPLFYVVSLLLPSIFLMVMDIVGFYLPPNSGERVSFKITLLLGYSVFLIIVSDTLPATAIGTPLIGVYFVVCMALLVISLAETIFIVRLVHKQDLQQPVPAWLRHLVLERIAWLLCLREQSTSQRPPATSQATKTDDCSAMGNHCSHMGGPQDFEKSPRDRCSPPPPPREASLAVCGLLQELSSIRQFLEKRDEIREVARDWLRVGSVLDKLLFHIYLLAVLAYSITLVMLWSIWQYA

[9] = molecular target: Type-1 angiotensin II receptor (Homo sapiens) (UniProt P30556); assay: Binding affinity to human AT1 receptor at 10 uM relative to control
Type-1 angiotensin II receptor (Homo sapiens), sequence (P30556 whole entry): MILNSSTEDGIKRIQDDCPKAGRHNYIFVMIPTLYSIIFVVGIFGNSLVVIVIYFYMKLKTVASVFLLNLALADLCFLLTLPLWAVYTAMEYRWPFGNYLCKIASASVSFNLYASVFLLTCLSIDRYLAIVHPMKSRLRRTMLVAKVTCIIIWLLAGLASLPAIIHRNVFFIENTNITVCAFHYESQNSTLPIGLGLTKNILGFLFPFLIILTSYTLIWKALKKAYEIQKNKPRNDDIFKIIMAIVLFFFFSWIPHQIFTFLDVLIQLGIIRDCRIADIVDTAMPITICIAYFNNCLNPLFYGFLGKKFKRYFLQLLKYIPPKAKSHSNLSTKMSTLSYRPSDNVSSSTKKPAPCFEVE

[10] = molecular target: Adrenergic receptor alpha-1 (Rattus norvegicus) (UniProt P15823+P23944+P43140); assay: Binding affinity to rat adrenergic alpha1 receptor at 10 uM relative to control
[11] = molecular target: Adrenergic receptor alpha-2 (Rattus norvegicus) (UniProt P22086+P19328+P22909); assay: Binding affinity to rat adrenergic alpha2 receptor at 10 uM relative to control
[12] = molecular target: 5-hydroxytryptamine receptor 2A (Rattus norvegicus) (UniProt P14842); assay: Binding affinity to rat 5-HT2 receptor at 10 uM relative to control
5-hydroxytryptamine receptor 2A (Rattus norvegicus), sequence (P14842 whole entry): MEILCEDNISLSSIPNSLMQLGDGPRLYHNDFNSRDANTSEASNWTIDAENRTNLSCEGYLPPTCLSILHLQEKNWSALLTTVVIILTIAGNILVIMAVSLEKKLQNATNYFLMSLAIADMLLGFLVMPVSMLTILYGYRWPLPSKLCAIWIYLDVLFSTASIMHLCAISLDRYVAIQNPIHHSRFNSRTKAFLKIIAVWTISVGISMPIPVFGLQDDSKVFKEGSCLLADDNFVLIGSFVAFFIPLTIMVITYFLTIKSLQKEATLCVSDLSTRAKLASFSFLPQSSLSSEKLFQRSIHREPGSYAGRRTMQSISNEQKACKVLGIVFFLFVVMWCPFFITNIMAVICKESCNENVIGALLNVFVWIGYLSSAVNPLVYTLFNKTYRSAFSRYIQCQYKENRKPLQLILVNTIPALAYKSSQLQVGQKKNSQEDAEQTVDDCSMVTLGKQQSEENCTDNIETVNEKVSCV

[13] = species on record: Rattus norvegicus; assay: Binding affinity to rat glutamate receptor at 10 uM relative to control
[14] = test system: Mus musculus; assay: Antiinflammatory activity in Balb/C mouse model of contact hypersensitivity assessed as inhibition of DNFB-stimulated ear swelling administered ip bid at 0 and 8 hrs measured 24 hrs post DNFB stimulation; format: functional, organism-based
[15] = species on record: Rattus norvegicus; assay: Binding affinity to rat muscarinic acetylcholine receptor at 10 uM relative to control
[16] = species on record: Homo sapiens; assay: Binding affinity to human nicotinic acetylcholine receptor at 10 uM relative to control
[17] = species on record: Rattus norvegicus; assay: Binding affinity to rat GABA-A receptor at 10 uM relative to control
[18] = molecular target: Histamine H2 receptor (Homo sapiens) (UniProt P25021); assay: Binding affinity to human histamine H2 receptor at 10 uM relative to control
Histamine H2 receptor (Homo sapiens), sequence (P25021 whole entry): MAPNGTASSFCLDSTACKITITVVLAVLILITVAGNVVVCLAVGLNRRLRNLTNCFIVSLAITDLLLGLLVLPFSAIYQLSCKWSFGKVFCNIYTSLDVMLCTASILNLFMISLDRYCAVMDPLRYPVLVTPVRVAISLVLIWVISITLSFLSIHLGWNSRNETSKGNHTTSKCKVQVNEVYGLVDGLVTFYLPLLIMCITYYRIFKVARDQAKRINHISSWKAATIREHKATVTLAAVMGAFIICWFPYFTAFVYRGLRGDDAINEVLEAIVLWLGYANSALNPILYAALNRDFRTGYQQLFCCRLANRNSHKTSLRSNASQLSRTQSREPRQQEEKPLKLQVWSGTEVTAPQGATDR

[19] = molecular target: C-C chemokine receptor type 4 (Homo sapiens) (UniProt P51679); assay: Antagonist activity at human CCR4 assessed as inhibition of CCL22-induced calcium flux at 10 uM relative to control; format: functional
C-C chemokine receptor type 4 (Homo sapiens), sequence (P51679 whole entry): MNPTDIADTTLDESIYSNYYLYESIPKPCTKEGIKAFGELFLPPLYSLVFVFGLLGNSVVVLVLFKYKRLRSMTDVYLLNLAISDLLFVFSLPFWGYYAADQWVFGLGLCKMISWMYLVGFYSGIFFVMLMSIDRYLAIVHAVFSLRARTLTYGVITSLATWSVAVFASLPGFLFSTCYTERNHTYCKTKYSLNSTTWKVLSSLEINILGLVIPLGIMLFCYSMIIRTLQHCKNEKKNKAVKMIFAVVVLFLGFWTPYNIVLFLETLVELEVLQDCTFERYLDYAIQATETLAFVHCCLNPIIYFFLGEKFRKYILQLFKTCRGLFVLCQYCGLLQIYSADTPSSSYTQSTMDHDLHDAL

[20] = species on record: Rattus norvegicus; assay: Binding affinity to rat GABA-B receptor at 10 uM relative to control
[21] = molecular target: Histamine H1 receptor (Homo sapiens) (UniProt P35367); assay: Binding affinity to human histamine H1 receptor at 10 uM relative to control
Histamine H1 receptor (Homo sapiens), sequence (P35367 whole entry): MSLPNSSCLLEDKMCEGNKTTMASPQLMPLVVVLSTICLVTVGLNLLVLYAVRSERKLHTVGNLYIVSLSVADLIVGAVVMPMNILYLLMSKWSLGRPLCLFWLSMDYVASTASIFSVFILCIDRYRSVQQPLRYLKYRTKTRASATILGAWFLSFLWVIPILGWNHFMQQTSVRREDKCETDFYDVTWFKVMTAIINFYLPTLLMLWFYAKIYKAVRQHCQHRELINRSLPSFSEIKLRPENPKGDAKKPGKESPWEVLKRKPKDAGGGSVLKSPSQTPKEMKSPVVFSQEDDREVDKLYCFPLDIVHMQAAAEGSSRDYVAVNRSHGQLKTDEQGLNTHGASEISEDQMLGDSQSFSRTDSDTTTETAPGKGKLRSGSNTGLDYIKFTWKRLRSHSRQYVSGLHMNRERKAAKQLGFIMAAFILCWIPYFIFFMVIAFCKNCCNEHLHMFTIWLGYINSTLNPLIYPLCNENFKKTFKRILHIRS

[22] = molecular target: Adrenergic receptor beta (Rattus norvegicus) (UniProt P18090+P10608+P26255); assay: Binding affinity to rat adrenergic beta receptor at 10 uM relative to control
[23] = molecular target: D(3) dopamine receptor (Homo sapiens) (UniProt P35462); assay: Binding affinity to human dopamine D3 receptor at 10 uM relative to control
D(3) dopamine receptor (Homo sapiens), sequence (P35462 whole entry): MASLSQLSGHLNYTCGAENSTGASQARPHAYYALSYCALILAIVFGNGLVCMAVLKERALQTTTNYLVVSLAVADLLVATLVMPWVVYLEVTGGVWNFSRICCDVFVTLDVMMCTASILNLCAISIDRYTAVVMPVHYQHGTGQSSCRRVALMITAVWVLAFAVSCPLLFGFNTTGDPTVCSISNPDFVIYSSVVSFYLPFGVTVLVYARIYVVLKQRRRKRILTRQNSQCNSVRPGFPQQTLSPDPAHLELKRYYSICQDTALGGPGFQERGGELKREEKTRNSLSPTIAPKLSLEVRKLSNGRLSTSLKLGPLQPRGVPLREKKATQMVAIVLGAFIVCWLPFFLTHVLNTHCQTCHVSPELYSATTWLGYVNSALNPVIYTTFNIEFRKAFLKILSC

Structure (SMILES): CC1CCCCN1C(=O)C(CCn1cccc1C#N)NS(=O)(=O)c1cc(Cl)c(N)c(Cl)c1 (stereo not given)
IC50 [1]: 794 nM

Structure (SMILES): CC1CCN(C(=O)C(CCn2cccc2C#N)NS(=O)(=O)c2c(N)cc(Cl)cc2Cl)CC1 (stereo not given)
IC50 [1]: 39.8 nM

Structure (SMILES): CC1CCN(C(=O)C(CCn2nccc2C#N)NS(=O)(=O)c2cc(Cl)c(N)c(Cl)c2)CC1 (stereo not given)
pIC50 [2]: 5.50 | IC50 [1]: 63.1 nM

Structure (SMILES): N#Cc1cccn1CCC(NS(=O)(=O)c1cc(Cl)c(N)c(Cl)c1)C(=O)N1CCCCCC1 (stereo not given)
IC50 [1]: 251 nM

Structure (SMILES): N#Cc1cccn1CCC(NS(=O)(=O)c1cccc2[nH]ccc12)C(=O)N1CCC(C(F)(F)F)CC1 (stereo not given)
IC50 [1]: 10 nM

Structure (SMILES): CC1CCN(C(=O)C(CCn2cncn2)NS(=O)(=O)c2cc(Cl)c(N)c(Cl)c2)CC1 (stereo not given)
IC50 [1]: > 20000 nM

Structure (SMILES): CC1CCN(C(=O)C(CCn2cccc2C#N)NS(=O)(=O)c2ccc3cc[nH]c3c2)CC1 (stereo not given)
pIC50 [2]: 6.00 | IC50 [1]: 7.94 nM

Structure (SMILES): N#Cc1cccn1CCC(NS(=O)(=O)c1cc(Cl)c(N)c(Cl)c1)C(=O)N1CCCC1 (stereo not given)
IC50 [1]: > 10000 nM

Structure (SMILES): CC1CCN(C(=O)C(CCn2cccc2C#N)NS(=O)(=O)c2ccccc2)CC1 (stereo not given)
pIC50 [2]: < 4.70 | IC50 [1]: 1260 nM

Structure (SMILES): CC1CCN(C(=O)C(CCn2ccnc2C#N)NS(=O)(=O)c2cc(Cl)c(N)c(Cl)c2)CC1 (stereo not given)
IC50 [1]: 501 nM

Structure (SMILES): CC1CCN(C(=O)[C@H](CCc2ccccc2)NS(=O)(=O)c2cc(Cl)c(N)c(Cl)c2)CC1
IC50 [1]: > 10000 nM

Structure (SMILES): CC1CCCCN1C(=O)C(CCn1cccc1C#N)NS(=O)(=O)c1cccc2[nH]ccc12 (stereo not given)
IC50 [1]: 20 nM

Continued, in another order:

IC50 [1]: 25.1 nM
Structure (SMILES): N#Cc1cccn1CCC(NS(=O)(=O)c1cccc2[nH]ccc12)C(=O)N1CCCCCC1 (stereo not given)

IC50 [1]: 251 nM
Structure (SMILES): CC1CCN(C(=O)C(CCn2nccc2Cl)NS(=O)(=O)c2cc(Cl)c(N)c(Cl)c2)CC1 (stereo not given)

IC50 [1]: 7.94 nM
Structure (SMILES): CC1CCN(C(=O)[C@@H](CCn2cccc2C#N)NS(=O)(=O)c2cc(Cl)c(N)c(Cl)c2)CC1

IC50 [1]: 50.1 nM
Structure (SMILES): CC1CCN(C(=O)C(CCn2cccc2C#N)NS(=O)(=O)c2cccc3ccccc23)CC1 (stereo not given)

IC50 [1]: 631 nM
Structure (SMILES): CC1CCCN(C(=O)C(CCn2cccc2C#N)NS(=O)(=O)c2cc(Cl)c(N)c(Cl)c2)C1 (stereo not given)

Activity [3]: 19% | Activity [4]: < 10% | Activity [5]: < 10% | Activity [6]: < 10% | Activity [7]: < 10% | Activity [8]: < 10% | Activity [9]: < 10% | Activity [10]: < 10% | Activity [11]: < 10% | Activity [12]: < 10% | Activity [13]: < 10% | Activity [15]: 22% | Activity [16]: < 10% | Activity [17]: < 10% | Activity [18]: < 10% | inhibition [19]: < 10% | Activity [20]: < 10% | Activity [21]: < 10% | Activity [22]: < 10% | Activity [23]: < 10%
Structure (SMILES): CC1CCN(C(=O)C(CCn2cccc2C#N)NS(=O)(=O)c2cccc3[nH]ccc23)CC1 (stereo in doubt; form 1)
inhibition [14]: Dose-dependent effect

IC50 [1]: > 20000 nM
Structure (SMILES): CC1CCN(C(=O)C(CCn2ccnn2)NS(=O)(=O)c2cc(Cl)c(N)c(Cl)c2)CC1 (stereo not given)

IC50 [1]: 63.1 nM
Structure (SMILES): CC1CCN(C(=O)C(CCn2cccc2C#N)NS(=O)(=O)c2cc(Cl)c(N)cc2Cl)CC1 (stereo not given)

IC50 [1]: 126 nM
Structure (SMILES): N#Cc1cccn1CCC(NS(=O)(=O)c1cccc2[nH]ccc12)C(=O)N1CCC(O)CC1 (stereo not given)

IC50 [1]: 15800 nM
Structure (SMILES): CC1CCN(C(=O)[C@H](CCn2cccc2C#N)NS(=O)(=O)c2cc(Cl)c(N)c(Cl)c2)CC1

Source: ChEMBL document CHEMBL3862010, “N-Arylsulfonyl-α-amino carboxamides are potent and selective inhibitors of the chemokine receptor CCR10 that show efficacy in the murine DNFB model of contact hypersensitivity” (Bioorg Med Chem Lett, 2016)
